In experiment [1] the test system is IL-23-stimulated phosphorylated STAT3 in peripheral blood mononuclear cells (PBMCs). Briefly: PBMC pSTAT3 Assay. The format is cell-based. The note with it: PBMCs from healthy donors; 30 min preincubation with peptide; IL-23 5 ng/mL for 30 min; phospho-STAT3 by MSD. A digest of the protocol:
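Healthy-donor PBMCs expanded 4 days on anti-CD3 with 100 ng/mL IL-1β, starved ~4 h in RPMI-0.1% BSA, preincubated 30 min with peptide, then stimulated 30 min at 37 °C with 5 ng/mL IL-23. Lysate pSTAT3 measured by MSD phospho-STAT panel; IC50 derived.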

The target in another experiment is T1, IL-23R (Homo sapiens, UniProt Q5VWK5).
T1 construct: HEK293 cells containing IL-23R, IL-12Rβ1 and a firefly luciferase reporter gene driven by a STAT-inducible promoter (Promega); host or cells: HEK293
T1 sequence (Q5VWK5 24-629): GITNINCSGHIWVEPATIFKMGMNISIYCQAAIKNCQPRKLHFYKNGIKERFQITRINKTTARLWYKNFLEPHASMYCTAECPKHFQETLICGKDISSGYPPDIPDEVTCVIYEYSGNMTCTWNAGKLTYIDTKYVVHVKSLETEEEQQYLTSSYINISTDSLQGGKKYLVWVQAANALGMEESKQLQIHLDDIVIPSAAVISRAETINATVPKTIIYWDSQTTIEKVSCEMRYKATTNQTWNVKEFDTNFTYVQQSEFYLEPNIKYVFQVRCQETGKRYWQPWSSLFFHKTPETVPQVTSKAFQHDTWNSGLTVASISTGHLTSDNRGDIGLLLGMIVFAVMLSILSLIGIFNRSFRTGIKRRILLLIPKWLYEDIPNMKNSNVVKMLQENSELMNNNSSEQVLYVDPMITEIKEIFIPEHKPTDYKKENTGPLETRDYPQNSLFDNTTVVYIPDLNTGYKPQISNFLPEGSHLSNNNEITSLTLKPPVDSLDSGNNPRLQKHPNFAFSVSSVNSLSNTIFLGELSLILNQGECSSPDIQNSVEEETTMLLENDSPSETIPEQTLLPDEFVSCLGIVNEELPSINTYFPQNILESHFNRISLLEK
Briefly: IL23R Reporter Assay. The conditions noted are these: HEK293 cells containing IL-23R, IL-12Rβ1 and STAT-inducible firefly luciferase reporter; 10 ng/mL IL-23 (EC90); 5 h. Format: cell-based. Summed up:
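HEK293 cells carrying IL-23R, IL-12Rβ1 and a STAT-driven firefly luciferase reporter (4000 cells/well) received compound, then 10 ng/mL IL-23 solution (EC90), and were incubated for 5 h at 37° C. BioGlo luminescence was normalised to IL-23 alone (0%) and 30 μM control inhibitor (100%). IC50 came from a 4-parameter Hill fit.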

*1 amine or outer side, *2 acyl side, *3 side chain or, on linkers, in order; H or OH if unused. Where a SMILES comes first, the peptide text is derived from it. Bridges are numbered along the chain shown (N, C = ends). Side-chain parts run from the residue outwards. [ ]: non-standard residue; d: D form. The star is where a group is joined. X27 = C[N+](C)(CCNC(=O)COCCOCCNC(=O)COCCOCCNC(=O)CC[C@H](NC(=O)CCCCCCCCCCCCCCCCCCC(=O)O)C(=O)O)CC(=O)*; X23 = CN(CCOCCOCC(=O)N(C)CCOCCOCC(=O)*)C(=O)CC[C@H](C(=O)O)N(C)C(=O)CCCCCCCCCCCCCCCCC(=O)O; Me3N+(CH2)2O(CH2)2O(CH2)2CO = C[N+](C)(C)CCOCCOCCC(=O)*; PEG12 = NCCOCCOCCOCCOCCOCCOCCOCCOCCOCCOCCOCCOCCC(=O)O; NH(CH2CH2O)2CH2CH2NMe3+ = C[N+](C)(C)CCOCCOCCN*; Trp(7-Me) = Cc1cccc2c(C[C@H](N)C(=O)O)c[nH]c12; C18 diacid = O=C(O)CCCCCCCCCCCCCCCCC(=O)*; γGlu = O=C(O)[C@H](CCC(=O)[*:2])N[*:1]; 2Nal = N[C@@H](Cc1ccc2ccccc2c1)C(=O)O; AEF = NCCOc1ccc(C[C@H](N)C(=O)O)cc1; X2 = C[N+](C)(C)C[C@@H](CC(=O)O)N*; 3Pal = N[C@@H](Cc1cccnc1)C(=O)O; Lys(Me) = CNCCCC[C@H](N)C(=O)O; NMeK = CN[C@@H](CCCCN)C(=O)O; Pen = CC(C)(S)[C@H](N)C(=O)O; Suc = O=C(CCC(=O)[*:2])[*:1]; Thp = NC1(C(=O)O)CCOCC1; X1 = C[N+](C)(C)CCCCC*; AEEA = NCCOCCOCC(=O)O; Sar = CNCC(=O)O

For eight compounds, IC50 results are on record in patent publication US20260250320A1, “LIPIDATED PEPTIDE INHIBITORS OF INTERLEUKIN-23 RECEPTOR” (Janssen Pharmaceutica NV, priority 2023, published 2026).

As for `CC(=O)NCCCC[C@@H]1NC(=O)[C@H](Cc2c[nH]c3c(C)cccc23)NC(=O)[C@H]([C@@H](C)O)NC(=O)[C@H](CC(N)=O)NC(=O)[C@@H](NC(=O)[C@@H](CCCNC(=N)N)NC(=O)COCCOCCNC(=O)COCCOCCNC(=O)CC[C@H](NC(=O)CCCCCCCCCCCCCCCCC(=O)O)C(=O)O)C(C)(C)SSC(C)(C)[C@@H](C(=O)N[C@@H](Cc2ccc(OCCN)cc2)C(=O)N[C@@H](Cc2ccc3ccccc3c2)C(=O)NC2(C(=O)N[C@@H](CCC(=O)O)C(=O)N[C@@H](CC(N)=O)C(=O)N[C@@H](Cc3cccnc3)C(=O)N(C)CC(=O)NCCOCCOCC[N+](C)(C)C)CCOCC2)NC1=O` [compound 67, HOC18gEPEG2PEG2CO-r-Pen(3)-N-T-7MeW-K(Ac)-Pen(3)-AEF-2Nal-THP-E-N-3Pya-Sar-CONH(PEG3a)] ({C18 diacid-γGlu-AEEA-AEEA}-[dR][Pen]NT[Trp(7-Me)]K(Ac)[Pen][AEF][2Nal][Thp]EN[3Pal][Sar]-{NH(CH2CH2O)2CH2CH2NMe3+}; disulfide 2-7), the IC50 in experiment [1] was in the range of 0.5 to 5 nM; at IL-23R it was 50 to 500 nM.
On the same counts, the results for `CC(=O)N(C)CCCC[C@@H]1NC(=O)[C@H](Cc2c[nH]c3c(C)cccc23)NC(=O)[C@H]([C@@H](C)O)NC(=O)[C@H](CC(=O)N(C)C)NC(=O)[C@@H](NC(=O)CCOCCOCC[N+](C)(C)C)C(C)(C)SSC(C)(C)[C@@H](C(=O)N[C@@H](Cc2ccc(OCCNC(=O)C[N+](C)(C)CCNC(=O)COCCOCCNC(=O)COCCOCCNC(=O)CC[C@H](NC(=O)CCCCCCCCCCCCCCCCCCC(=O)O)C(=O)O)cc2)C(=O)N[C@@H](Cc2ccc3ccccc3c2)C(=O)NC2(C(=O)N[C@@H](CCCCN(C)C(C)=O)C(=O)N[C@@H](CC(N)=O)C(=O)N[C@@H](Cc3cccnc3)C(=O)N(C)CC(=O)N(C)C)CCOCC2)NC1=O` [compound 151, cPEG3aCO-Pen(3)-N(N(Me)2)-T-7MeW-K(NMeAc)-Pen(3)-AEF(SP6PEG2PEG2gEC20OH)-2Nal-THP-K(NMeAc)-N-3Pya-Sar-CON(Me)2] ({Me3N+(CH2)2O(CH2)2O(CH2)2CO}-[Pen]D(NMe2)T[Trp(7-Me)][Lys(Me)](Ac)[Pen][AEF](X27)[2Nal][Thp][Lys(Me)](Ac)N[3Pal][Sar]-NMe2; disulfide 1-6) are under 0.5 nM and under 50 nM.
With `CC(=O)NCCCC[C@@H]1NC(=O)[C@H](Cc2c[nH]c3c(C)cccc23)NC(=O)[C@H]([C@@H](C)O)NC(=O)[C@H](CC(N)=O)NC(=O)[C@@H](NC(C)=O)C(C)(C)SSC(C)(C)[C@@H](C(=O)N[C@@H](Cc2ccc(OCCN)cc2)C(=O)N[C@@H](Cc2ccc3ccccc3c2)C(=O)NC2(C(=O)N[C@@H](CCC(=O)O)C(=O)N[C@@H](CC(N)=O)C(=O)N[C@@H](Cc3cccnc3)C(=O)N(C)CC(=O)N[C@@H](CCCCNC(=O)CCOCCOCCOCCOCCOCCOCCOCCOCCOCCOCCOCCOCCNC(=O)CC[C@H](NC(=O)CCCCCCCCCCCCCCCCCCC(=O)O)C(=O)O)C(N)=O)CCOCC2)NC1=O` [compound 103, MeCO-Pen(3)-N-T-7MeW-K(Ac)-Pen(3)-AEF-2Nal-THP-E-N-3Pya-Sar-K(PEG12gEC20OH)-CONH2], the IC50 in experiment [1] was under 0.5 nM; at IL-23R, under 50 nM.
The matching figures for `Cc1cccc2c(C[C@@H]3NC(=O)[C@H]([C@@H](C)O)NC(=O)[C@H](CC(N)=O)NC(=O)[C@@H](NC(=O)[C@@H](CCCNC(=N)N)NC(=O)COCCOCCNC(=O)COCCOCCNC(=O)CC[C@H](NC(=O)CCCCCCCCCCCCCCCCC(=O)O)C(=O)O)C(C)(C)SSC(C)(C)[C@@H](C(=O)N[C@@H](Cc4ccc(OCCN)cc4)C(=O)N[C@@H](Cc4ccc5ccccc5c4)C(=O)NC4(C(=O)N[C@@H](CCC(=O)O)C(=O)N[C@@H](CC(N)=O)C(=O)N[C@@H](Cc5cccnc5)C(=O)N(C)CC(N)=O)CCOCC4)NC(=O)[C@H](CCCCNC(=O)CCC(=O)N[C@H](CC(=O)O)C[N+](C)(C)C)NC3=O)c[nH]c12` [compound 46, HOC18gEPEG2PEG2CO-r-Pen(3)-N-T-7MeW-K(d)-Pen(3)-AEF-2Nal-THP-E-N-3Pya-Sar-CONH2] ({C18 diacid-γGlu-AEEA-AEEA}-[dR][Pen]NT[Trp(7-Me)]K([Suc-X2])[Pen][AEF][2Nal][Thp]EN[3Pal][Sar]-NH2; disulfide 2-7): under 0.5 nM and under 50 nM.
On the same counts, the results for `CC(=O)NCCCC[C@@H]1NC(=O)[C@H](Cc2c[nH]c3c(C)cccc23)NC(=O)[C@H]([C@@H](C)O)NC(=O)[C@H](CC(N)=O)NC(=O)[C@@H](NC(C)=O)C(C)(C)SSC(C)(C)[C@@H](C(=O)N[C@@H](Cc2ccc(OCCN)cc2)C(=O)N[C@@H](Cc2ccc3ccccc3c2)C(=O)NC2(C(=O)N[C@@H](CCC(=O)O)C(=O)N[C@@H](CC(N)=O)C(=O)N[C@@H](Cc3cccnc3)C(=O)N(C)CC(=O)N[C@@H](CCCCNC(=O)COCCOCCN(C)C(=O)COCCOCCN(C)C(=O)CC[C@@H](C(=O)O)N(C)C(=O)CCCCCCCCCCCCCCCCCc3nnn[nH]3)C(N)=O)CCOCC2)NC1=O` [compound 3, MeCO-Pen(3)-N-T-7MeW-K(Ac)-Pen(3)-AEF-2Nal-THP-E-N-3Pya-Sar-K(PEG2NMePEG2NMegENMeC18Tetrazole)-CONH2] are under 0.5 nM and under 50 nM.
For the compound `CC(=O)NCCCC[C@@H]1NC(=O)[C@H](Cc2c[nH]c3c(C)cccc23)NC(=O)[C@H]([C@@H](C)O)NC(=O)[C@H](CC(N)=O)NC(=O)[C@@H](NC(=O)[C@@H](CCCNC(=N)N)NC(C)=O)C(C)(C)SSC(C)(C)[C@@H](C(=O)N[C@@H](Cc2ccc(OCCCCC[N+](C)(C)C)cc2)C(=O)N[C@@H](Cc2ccc3ccccc3c2)C(=O)NC2(C(=O)N[C@@H](CCCCNC(=O)CCOCCOCCOCCOCCOCCOCCOCCOCCOCCOCCOCCOCCNC(=O)CC[C@H](NC(=O)CCCCCCCCCCCCCCCCC(=O)O)C(=O)O)C(=O)N[C@@H](CC(N)=O)C(=O)N[C@@H](Cc3cccnc3)C(=O)N(C)CC(=O)N(C)C)CCOCC2)NC1=O` [compound 123, cPEG3aCO-Pen(3)-N(N(Me)2)-T-7MeW-K(NMeAc)-Pen(3)-TMAPF-2Nal-THP-K(PEG12gEC18OH)-N-3Pya-Sar-CON(Me)2] (Ac-[dR][Pen]NT[Trp(7-Me)]K(Ac)[Pen]Y(X1)[2Nal][Thp]K([PEG12-γGlu-C18 diacid])N[3Pal][Sar]-NMe2; disulfide 2-7), the 50% inhibitory concentration (IC50) in experiment [1] was under 0.5 nM; at IL-23R it was under 50 nM.
The matching figures for `CC(=O)NCCCC[C@@H]1NC(=O)[C@H](Cc2c[nH]c3c(C)cccc23)NC(=O)[C@H]([C@@H](C)O)NC(=O)[C@H](CC(N)=O)NC(=O)[C@@H](NC(=O)[C@@H](CCCNC(=N)N)NC(C)=O)C(C)(C)SSC(C)(C)[C@@H](C(=O)N[C@@H](Cc2ccc(OCCN)cc2)C(=O)N[C@@H](Cc2ccc3ccccc3c2)C(=O)NC2(C(=O)N[C@@H](CCC(=O)O)C(=O)N[C@@H](CC(N)=O)C(=O)N[C@@H](Cc3cccnc3)C(=O)N(C)[C@@H](CCCCNC(=O)COCCOCCN(C)C(=O)COCCOCCN(C)C(=O)CC[C@H](C(=O)O)N(C)C(=O)CCCCCCCCCCCCCCCCC(=O)O)C(N)=O)CCOCC2)NC1=O` [compound 80, MeCO-r-Pen(3)-N-T-7MeW-K(Ac)-Pen(3)-AEF-2Nal-THP-E-N-3Pya-NMeK(PEG2NMePEG2NMegENMeC18OH)-CONH2] (Ac-[dR][Pen]NT[Trp(7-Me)]K(Ac)[Pen][AEF][2Nal][Thp]EN[3Pal][NMeK](X23)-NH2; disulfide 2-7): under 0.5 nM and 50 to 500 nM.
As for `CC(=O)NCCCC[C@@H]1NC(=O)[C@H](Cc2c[nH]c3c(C)cccc23)NC(=O)[C@H]([C@@H](C)O)NC(=O)[C@H](CC(N)=O)NC(=O)[C@@H](NC(=O)[C@@H](CCCNC(=N)N)NC(C)=O)C(C)(C)SSC(C)(C)[C@@H](C(=O)N[C@@H](Cc2ccc(OCCNC(=O)COCCOCCNC(=O)COCCOCCNC(=O)CC[C@H](NC(=O)CCCCCCCCCCCCCCCCC(=O)O)C(=O)O)cc2)C(=O)N[C@@H](Cc2ccc3ccccc3c2)C(=O)NC2(C(=O)N[C@@H](CCCCNC(=O)CCC(=O)N[C@H](CC(=O)O)C[N+](C)(C)C)C(=O)N[C@@H](CC(N)=O)C(=O)N[C@@H](Cc3cccnc3)C(=O)N(C)CC(N)=O)CCOCC2)NC1=O` [compound 9, MeCO-r-Pen(3)-N-T-7MeW-K(Ac)-Pen(3)-AEF(PEG2PEG2gEC18OH)-2Nal-THP-K(d)-N-3Pya-Sar-CONH2] (Ac-[dR][Pen]NT[Trp(7-Me)]K(Ac)[Pen][AEF]([AEEA-AEEA-γGlu-C18 diacid])[2Nal][Thp]K([Suc-X2])N[3Pal][Sar]-NH2; disulfide 2-7), the IC50 in experiment [1] was under 0.5 nM; on IL-23R, under 50 nM.
